# Data as given in patent US20060275505A1, “Method and composition for increasing the alkalinity of the body” (priority 2005, published 2006).
# Test system: acid reflux
# Assay: Example 13 case study, acid reflux
# Type: in vivo, human
# Details: patient history
# Excerpt: A person had suffered from acid reflux for two years. The reflux was severe enough to wake them once or twice every night, and they slept in an inclined bed. […] The patient drank a small glass of water with Alka Vita each night.
row,Compound,relief of acid reflux by drugs tried before
1,COc1ccc2[nH]c([S@@+]([O-])Cc3ncc(C)c(OC)c3C)nc2c1 [Nexium],no relief
2,NC(N)=Nc1nc(CSCCC(N)=NS(N)(=O)=O)cs1 [Pepcid AC],no relief
3,COc1ccc2[nH]c([S+]([O-])Cc3ncc(C)c(OC)c3C)nc2c1 (stereo not shown) [Prilosec],no relief
4,COc1cc(N)c(Cl)cc1C(=O)NC1CCN(CCCOc2ccc(F)cc2)CC1OC (stereo not shown) [Propulsid],no relief
